Laboratory results reported in patent US7977364B2, “Indazoles, benzisoxazoles and benzisothiazoles and their use as estrogenic agents” (Laboratoire Thermamex, priority 2004, dated 2011).
Where two headings read alike, the source gives them in different places.

How the values were obtained:
ovariectomized rats = assay: Hot flush model in vivo: tail skin temperature, uteri and body weight; conditions: 3 mg/rat/day
[1] = tested on: human endometrial adenocarcinoma Ishikawa cells; assay: Estrogenic and anti-estrogenic activities in vitro: induction of alkaline phosphatase (APase) activity; format: cell-based; conditions: Homo sapiens, Ishikawa, 96 h; compound alone, four days; ND = not detected; read-out: Estrogenic activity EC50 (nM) ± S.E.M
Description: The estrogenic and anti-estrogenic potentials of new compounds were evaluated using the induction of alkaline phosphatase (APase) activity, an estrogen specific response in human endometrial adenocarcinoma Ishikawa cells (Botella J., J Steroid Biochem Molec Biol, 1995, 55: 77-84; Littlefield et al., Endocrinology, 1990, 127: 2757-2762).
Ishikawa cells were routinely grown as monolayers in Dulbecco's Modified Eagle's medium (DMEM) containing 4 mM Glutamax I and supplemented with 10% of decomplemented fetal calf serum (dFCS) and antibiotics. They were maintained in a humidified atmosphere of 5% CO2 and 95% air, at 37±0.1° C. Stocks were performed once a week to maintain continuous exponential growth.
For studies, Ishikawa cells were plated into 96-well microplates. The next day, the medium was changed to a phenol red-free DMEM containing 5% dFCS stripped of endogenous estrogens by dextran coated charcoal treatment.
At the end of the incubation period, APase activity was assayed by a method involving the hydrolysis of p-nitrophenyl phosphate to p-nitrophenol at pH 9.8 and spectrophotometric determination of the product at 405 nm.
In brief, the microplates were first rinsed twice with cold phosphate buffered solution and then placed at −80° C. for at least 15 minutes. After thawing at room temperature for 5-10 minutes, the plates were put on ice and 50 μl ice-cold solution containing 5 mM p-nitrophenyl phosphate was added to each well. The plates were warmed to room temperature to allow for the development of the enzymatic reaction (t0). After a 15 to 60 minute incubation period, the intensity of the yellow color generated by the production of p-nitrophenol was measured into each well at 405 nm using a microplate reader (Wallac, model 1420 Victor^2). […] Sigmoidal dose-response curves were plotted and EC50 (estrogenic effect) and IC50 (anti-estrogenic effect) values were calculated for each compound.

[2] = tested on: human breast cancer cell line MCF-7; assay: Proliferative activity in vitro (ATP luminescence, 6 days); format: cell-based; conditions: Homo sapiens, MCF7, 144 h
Description: The proliferative effect of the compounds of the invention was evaluated on human breast cancer cell line MCF-7 by measuring the number of viable cells after 6 days of treatment.
MCF-7 cells were routinely cultured as monolayers in Dulbecco's modified Eagle's medium (DMEM) containing 4 mM Glutamax and 4.5 g/l glucose and supplemented with 5% (v/v) decomplemented fetal calf serum (dFCS) and antibiotics.
Cells were plated at 2.10^6 cells/75 cm^2 flasks and incubated at 37° C. in a humidified atmosphere containing 5% CO2. They were passaged once weekly to maintain continuous exponential growth. Forty eight hours before the start of an experiment, near-confluent cells were changed to a phenol red free DMEM containing 5% steroid-stripped dFCS by dextran coated charcoal treatment (DCC-DMEM). On the day of the experiment, cells were harvested by brief exposure to trypsin and plated in DCC-DMEM in 96-well microplates at a density of 4.10^3 cells/well. The next day, the medium was renewed and test compounds, diluted appropriately in estrogen-free DMEM, were added and incubated for six days. […] At the end of the incubation period, cell proliferation was evaluated by quantitation of the cellular ATP content which signals the presence of metabolically active cells.
The assay, based on the ATP-dependent luciferase reaction, enables generation of a luminescent signal proportional to the amount of ATP present. As there is a linear relationship between the amount of ATP and the number of viable cells present in culture, the luminescent signal allowed to precisely evaluate cell proliferation (Crouch, S. P. M. et al. J. Immunol. Meth., 1993, 160, 81; Kangas, L. et al. Med. Biol. 1984, 62, 338; Petty, R. D. et al. J. Biolum. Chemilum. 1995, 10, 29).
In brief, the microplates were inverted to discard the culture medium and 100 μl of fresh medium was added into each well. The microplates were equilibrated at room temperature for approximately 30 minutes. 100 μl of luciferase reagent was added into each well and contents were mixed for 2 minutes to induce cell lysis. The plates were incubated at room temperature for 10 minutes to stabilize luminescence signal.
Luminescence was recorded using a microplate reader (Wallac, model 1420 Victor^2) and results were expressed as percentage of the control luminescence. Sigmoidal dose-response curves were plotted and EC50 values were calculated for each compound in order to evaluate their proliferative potency.

Prepubescent female rats = assay: Estrogenic / uterotrophic activity in vivo (uterus wet weight); set-up: species or system rat; conditions: Rattus norvegicus, po, 72 h, orally 3 mg/rat/day for 3 days, read-out: % stimulation vs vehicle (uterus weight)
Description: Prepubescent female rats were orally treated at 3 mg/rat/day for 3 days. On the day following the last treatment, uteri were removed and wet weights were recorded.
The results are expressed as % of stimulation of uterus weight in comparison with vehicles. […]
Prepubescent female rats were orally treated with 0.3; 1; 3 or 10 mg/rat/day for 3 days. On the day following the last treatment, uteri were removed and wet weights were recorded.

rats = assay: Forced swimming test (antidepressant activity, immobility duration); format: in vivo, rat
Excerpt: Antidepressant effect of estradiol was recently reported in studies using ER β KO mice model. In addition, ER β localization in dorsal raphe nucleus area in rat has been described. The gold standard test for antidepressant potency of compound consist in the forced swimming test, in this experiment antidepressants could be distinguished from psychostimulants which decreased immobility at doses which increased general activity. In order to investigate the putative antidepressant potency of the compounds reported here, the forced swimming test was performed according to the following design. The animals were housed six per cage under standard colony conditions, with a 12 h light/dark cycle and ad libitum food and water. They were allowed to acclimatize to the colony for at least 7 days prior to any experimentation. For subcutaneous administration, the compound of Example 23 was dissolved in olive oil and diluted to the desired concentration on the day of administration. For positive control, intraperitoneal (i.p.) injection of desipramine was done. Desipramine was dissolved in double-distilled water (10 mg/kg). The experiments were conducted 30 min after the positive control drug treatment (only for desipramine treatment). Other compounds, ie: estradiol and the compound of Example 23 were daily injected subcutaneously in rats, during a 7 days period. Acquisition were performed on day 8 (24 h after the last administration of items) and day 9 (48 h after estradiol or compound 23 administration), respectively. Data acquired 24 hours after the last administration consisted in the “naïve animal group”, these animals had never been previously tested in the device. Data acquired 48 hours after a last administration of compounds consisted in “trained animal group”.
On the 8th, the forced swim test was performed. This study was carried out in rats according to the methods described by Porsolt (Eur. J. Pharm., 1978). Briefly, rats were placed individually in glass cylinders (height: 40 cm, diameter: 18 cm) containing 25 cm of water at 25° C. Ten minutes later, rats were removed and dried before being returned to their home cages. The animals were replaced in the cylinders 24 h later, and the procedure was repeated, and a 10-min observation period was recorded.

`C[C@]12CC[C@@H]3c4ccc(O)cc4CC[C@H]3[C@@H]1CC[C@@H]2O` [Example E2, 17β-estradiol, reference compound] was tested, and the “TST Variation day 1 vs day 0” value (ovariectomized rats) was −4.8 C. °, the “TST Variation day 4 vs day 0” value (ovariectomized rats) was −3.5 C. ° and the “TST Variation day 7 vs day 0” value (ovariectomized rats) was −5.6 C. °. For the same molecule, the “Body weights (% increase vs vehicle)” value (ovariectomized rats; after one week treatment) was −10%, the “Uteri weight (% increase vs vehicle)” value (ovariectomized rats; after one week treatment) was 273% and the EC50 [1] was 0.1 ± 0.05 nM. The EC50 ([2]; read-out: Cell proliferation EC50 (nM) ± S.E.M) was 0.01 nM, the activity at 1 µM ([2]; MCF-7, 10^−6 M, six days, read-out: Effect at 10^−6 M (% of control)) was 205% and the activity at 0.01 µM ([2]; MCF-7, 10^−8 M, six days, read-out: Effect at 10^−8 M (% of control)) was 212%. For the same molecule, the change in vivo at 3 mg (Prepubescent female rats; Table 4) was 526%, the change in vivo at 3 mg (Prepubescent female rats; Table 5) was 333% and the “immobility duration, Naïve animals” value (rats; 0.007 mg/rat/day s.c. 7 days, 24 h after last administration, 10 minutes test) was 22.5 ± 7.1 s. The “immobility duration, Trained animals” value (rats; 0.007 mg/rat/day s.c. 7 days, 48 h after last administration, 10 minutes test) was 79.2 ± 23.0 s and the antidepressor potency (rats; 24 h and 48 h after administration, in words) was “confirmation of the antidepressor potency”.

With `CNCCCN1c2ccccc2CCc2ccccc21` [desipramine, reference compound] the “immobility duration, Trained animals” value (rats; dosage 30 (mg/rat/day) as in table, i.p., 30 min before test, 10 minutes test) was 2.6 ± 1.5 s.
